The test system of data set [1] is Rattus norvegicus. As to the kind of experiment: Analgesic activity in Rattus norvegicus Wistar albino (rat) at 20 mg/kg, ip measured at 30 min by tail immersion method relative to control. It is filed as functional. To be noted: route intraperitoneal.
For data set [2], the system named is Rattus norvegicus. Nature of the data set: Anti-inflammatory activity in Rattus norvegicus Wistar albino (rat) assessed as inhibition of carrageenan-induced hind paw edema at 10 mg/kg, po measured at 3 hr relative to control. It is filed as functional.
Data set [3] deals with Rattus norvegicus. As to the kind of experiment: Anti-inflammatory activity in Rattus norvegicus Wistar albino (rat) assessed as inhibition of carrageenan-induced hind paw edema at 10 mg/kg, po measured at 4 hr relative to control. It is filed as functional. (Carrageenan injected into the paw causes an acute inflammation.)
Data set [4] deals with Rattus norvegicus. As to the kind of experiment: Ulcerogenic activity in Rattus norvegicus Wistar albino (rat) stomach assessed as ulcer index at 30 mg/kg, po measured after 17 hr relative to control. The data set is classed as toxicity, organism-based. The arrangement: dose 30 mg/kg, route oral. The settings on record: in vivo.
Data set [5] has as its system Rattus norvegicus. As to the kind of experiment: Antioxidant activity in Rattus norvegicus Wistar albino (rat) stomach assessed as decrease in malondialdehyde content measured per 100 mg of tissue at 30 mg/kg, po after 60 min by spectrophotometric analysis (reference value: 3.86 +/- 0.19 nmol). It is filed as functional.

`Cc1nn(-c2ccccc2)c(Cl)c1/C=N/NC(=O)c1ccc(F)cc1`: the Activity in the data set on Rattus norvegicus [1] is recorded as 187.8%. Besides, the inhibition in vivo – broadly, the drop in the measured response relative to a control, in per cent – at 10 mg/kg with Rattus norvegicus [2] amounted to 36.4%; with Rattus norvegicus [3], 67.1%.
For the molecule `Cc1nn(-c2ccccc2)c(Cl)c1/C=N/NC(=O)c1ccc(Cl)cc1`, the UI in the data set with Rattus norvegicus [4] came to 0.25. Besides, the Activity in the data set on Rattus norvegicus [1] came to 160.4%; in the data set on Rattus norvegicus [5], 4.51 nmol. Besides, the inhibition in vivo at 10 mg/kg in the data set with Rattus norvegicus [2] was found to be 42.4%; in the data set on Rattus norvegicus [3], 63.3%.
For `Cc1nn(-c2ccccc2)c(Cl)c1/C=N/NC(=O)Cc1ccc(Cl)cc1`, in the data set on Rattus norvegicus [1], the Activity was found to be 193.1%. Also, the inhibition in vivo at 10 mg/kg with Rattus norvegicus [2] turned out to be 57.6%; in the data set with Rattus norvegicus [3], 70.9%.
`O=C(O)Cc1ccccc1Nc1c(Cl)cccc1Cl` [DICLOFENAC] showed an Activity with Rattus norvegicus [1] of 749.3%.
The molecule `Cc1nn(-c2ccccc2)c(Cl)c1/C=N/NC(=O)c1ccc(Br)cc1` showed an Activity with Rattus norvegicus [1] of 158.7%.
In the data set on Rattus norvegicus [1], `Cc1nn(-c2ccccc2)c(Cl)c1/C=N/NC(=O)Cc1cccc2ccccc12` returned an Activity of 116.3%. Also, the figures for the inhibition in vivo at 10 mg/kg in the data set on Rattus norvegicus [2] and with Rattus norvegicus [3] were 42.4% and 55.7%, respectively.
With `COc1ccc2c(c1)c(CC(=O)O)c(C)n2C(=O)c1ccc(Cl)cc1` [INDOMETHACIN], the UI in the data set on Rattus norvegicus [4] is 4.5. For the same molecule, the inhibition in vivo at 10 mg/kg in the data set with Rattus norvegicus [2] came out at 48.5%; in the data set with Rattus norvegicus [3] it was 77.2%. Moreover, the Activity in the data set on Rattus norvegicus [5] stood at 21.98 nmol.
Take `Cc1nn(-c2ccccc2)c(Cl)c1/C=N/NC(=O)COc1ccccc1`: in the data set with Rattus norvegicus [4], the UI was 0.41.
`Cc1nn(-c2ccccc2)c(Cl)c1/C=N/NC(=O)c1ccc(Cl)cc1Cl`: in the data set on Rattus norvegicus [1], the Activity was 172.6%. For the same molecule, the inhibition in vivo at 10 mg/kg with Rattus norvegicus [2] was determined as 51.5%; with Rattus norvegicus [3] it was 74.7%.
Taken in the same sequence, the figures for `Cc1nn(-c2ccccc2)c(Cl)c1/C=N/NC(=O)c1ccc([N+](=O)[O-])cc1` were 92.8%, 12.1% and 54.4%.
As for `Cc1nn(-c2ccccc2)c(Cl)c1/C=N/NC(=O)c1ccccc1Cl`, the Activity with Rattus norvegicus [1] turned out to be 149%.
